A short description of test [1]: Inhibition of bovine liver beta-galactosidase assessed as reduction of p-nitrophenol release using p-nitrophenyl glycoside as substrate by spectrophotometric analysis. Also noted: species or system Bos taurus.
Test [2] can be described thus: Inhibition of bovine liver beta-glucosidase assessed as reduction of p-nitrophenol release using p-nitrophenyl glycoside as substrate by spectrophotometric analysis. On the set-up: species or system Bos taurus.
The next test deals with Beta-glucuronidase (Escherichia coli (strain K12), UniProt P05804). Nature of the test: Inhibition of Escherichia coli beta-glucuronidase assessed as reduction of p-nitrophenol release using p-nitrophenyl-glycoside as substrate by spectrophotometric analysis.
Test [3] in a line: Inhibition of Aspergillus niger amyloglucosidase assessed as reduction of p-nitrophenol release using p-nitrophenyl-glycoside as substrate by spectrophotometric analysis.
A further test is filed under the species Sus scrofa. Nature of the test: Inhibition of porcine kidney alpha/alpha-trehalase assessed as reduction of p-nitrophenol release using p-nitrophenyl glycoside as substrate at 1000 uM by spectrophotometric analysis relative to control.
The species entered for the next test is Bos taurus. In words: Inhibition of bovine liver beta-glucuronidase assessed as reduction of p-nitrophenol release using p-nitrophenyl-glycoside as substrate at 1000 uM by spectrophotometric analysis relative to control.
Test [4] deals with T1, Alpha-mannosidase (Canavalia ensiformis) (UniProt C0HJB3).
T1 sequence (whole entry): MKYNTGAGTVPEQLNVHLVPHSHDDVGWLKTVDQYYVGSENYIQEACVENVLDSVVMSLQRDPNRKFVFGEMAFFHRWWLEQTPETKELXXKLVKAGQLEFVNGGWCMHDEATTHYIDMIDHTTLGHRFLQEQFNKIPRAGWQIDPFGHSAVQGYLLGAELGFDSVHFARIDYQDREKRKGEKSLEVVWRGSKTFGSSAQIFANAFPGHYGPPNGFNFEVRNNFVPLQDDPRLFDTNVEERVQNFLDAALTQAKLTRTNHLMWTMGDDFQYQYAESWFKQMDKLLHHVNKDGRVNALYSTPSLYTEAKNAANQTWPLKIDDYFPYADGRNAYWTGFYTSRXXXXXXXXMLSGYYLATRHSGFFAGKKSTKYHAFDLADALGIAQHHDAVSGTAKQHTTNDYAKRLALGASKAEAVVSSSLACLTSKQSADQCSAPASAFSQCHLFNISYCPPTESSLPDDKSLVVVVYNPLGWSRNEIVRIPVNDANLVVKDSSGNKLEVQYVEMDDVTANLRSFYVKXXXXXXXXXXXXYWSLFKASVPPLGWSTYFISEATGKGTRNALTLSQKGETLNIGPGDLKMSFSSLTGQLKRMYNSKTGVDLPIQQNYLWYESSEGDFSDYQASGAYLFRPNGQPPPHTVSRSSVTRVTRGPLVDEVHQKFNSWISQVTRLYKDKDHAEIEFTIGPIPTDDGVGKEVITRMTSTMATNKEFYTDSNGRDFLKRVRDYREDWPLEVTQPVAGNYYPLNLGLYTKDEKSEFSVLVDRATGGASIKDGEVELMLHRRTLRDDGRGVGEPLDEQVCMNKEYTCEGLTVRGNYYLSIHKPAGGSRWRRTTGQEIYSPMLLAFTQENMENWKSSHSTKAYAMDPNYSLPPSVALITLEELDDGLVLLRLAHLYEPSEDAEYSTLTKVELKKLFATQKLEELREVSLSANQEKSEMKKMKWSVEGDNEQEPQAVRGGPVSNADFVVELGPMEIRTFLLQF
In words: Inhibition of jack bean alpha-mannosidase assessed as reduction of p-nitrophenol release using p-nitrophenyl glycoside as substrate at 1000 uM by spectrophotometric analysis relative to control.

The next test is filed under the species Rattus norvegicus. Nature of the test: Inhibition of rat intestinal maltase assessed as D-glucose release using maltose as substrate at pH 6.8 at 1000 uM by colorimetric method relative to control.
The nature of test [5]: Inhibition of human lysosomal beta-glucosidase assessed as reduction of p-nitrophenol release using p-nitrophenyl glycoside as substrate by spectrophotometric analysis.
The target in test [6] is Alpha-galactosidase (Coffea arabica) (UniProt Q42656). In words: Inhibition of coffee beans alpha-galactosidase assessed as reduction of p-nitrophenol release using p-nitrophenyl glycoside as substrate at 1000 uM by spectrophotometric analysis relative to control.
For test [7], the target named is T2, Tissue alpha-L-fucosidase (Bos taurus) (UniProt Q2KIM0).
T2 sequence (whole entry): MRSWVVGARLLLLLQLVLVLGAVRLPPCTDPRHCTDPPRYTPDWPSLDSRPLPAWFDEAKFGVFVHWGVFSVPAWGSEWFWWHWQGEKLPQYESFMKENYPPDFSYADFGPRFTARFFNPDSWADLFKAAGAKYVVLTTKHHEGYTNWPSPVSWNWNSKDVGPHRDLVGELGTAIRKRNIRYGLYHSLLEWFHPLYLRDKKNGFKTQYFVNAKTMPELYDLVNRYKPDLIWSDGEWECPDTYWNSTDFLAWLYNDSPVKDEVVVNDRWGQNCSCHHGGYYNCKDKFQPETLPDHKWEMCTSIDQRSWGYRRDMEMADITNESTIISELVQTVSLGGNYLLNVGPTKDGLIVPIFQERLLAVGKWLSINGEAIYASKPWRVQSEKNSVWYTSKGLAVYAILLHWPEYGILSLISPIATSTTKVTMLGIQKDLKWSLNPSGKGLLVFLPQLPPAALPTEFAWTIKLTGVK
Nature of the test: Inhibition of bovine kidney alpha-L-fucosidase assessed as reduction of p-nitrophenol release using p-nitrophenyl glycoside as substrate at 1000 uM by spectrophotometric analysis relative to control.

The subject of another test is Oryza sativa. Nature of the test: Inhibition of rice alpha-glucosidase assessed as reduction of p-nitrophenol release using p-nitrophenyl glycoside as substrate at 1000 uM by spectrophotometric analysis relative to control.
In the next test the test system is Penicillium decumbens. In words: Inhibition of Penicillium decumbens alpha-L-rhamnosidase assessed as reduction of p-nitrophenol release using p-nitrophenyl-glycoside as substrate at 1000 uM by spectrophotometric analysis relative to control.
Test [8] can be described thus: Inhibition of snail beta-mannosidase assessed as reduction of p-nitrophenol release using p-nitrophenyl glycoside as substrate by spectrophotometric analysis. Also noted: species or system Helix pomatia.
The nature of test [9]: Inhibition of almond beta-glucosidase assessed as reduction of p-nitrophenol release using p-nitrophenyl glycoside as substrate by spectrophotometric analysis. On the set-up: species or system Prunus dulcis.
Test [10] deals with Alpha-glucosidase (Saccharomyces cerevisiae S288c) (UniProt P53341+P38158+P07265). Nature of the test: Inhibition of yeast alpha-glucosidase assessed as reduction of p-nitrophenol release using p-nitrophenyl glycoside as substrate at 1000 uM by spectrophotometric analysis relative to control. Type of test: protein assay.
In the next test the target is Alpha-glucosidase (Saccharomyces cerevisiae S288c, UniProt P53341+P38158+P07265). Nature of the test: Inhibition of yeast alpha-glucosidase assessed as reduction of p-nitrophenol release using p-nitrophenyl glycoside as substrate by spectrophotometric analysis. Type of test: protein assay.
The subject of another test is Helix pomatia. Nature of the test: Inhibition of snail beta-mannosidase assessed as reduction of p-nitrophenol release using p-nitrophenyl glycoside as substrate at 1000 uM by spectrophotometric analysis relative to control.
The test system of a further test is Aspergillus niger. In words: Inhibition of Aspergillus niger amyloglucosidase assessed as reduction of p-nitrophenol release using p-nitrophenyl-glycoside as substrate at 1000 uM by spectrophotometric analysis relative to control.
A short description of test [11]: Inhibition of rat intestinal maltase assessed as D-glucose release using maltose as substrate at pH 6.8 by colorimetric method.
For the next test, the system named is Prunus dulcis. Nature of the test: Inhibition of almond beta-glucosidase assessed as reduction of p-nitrophenol release using p-nitrophenyl glycoside as substrate at 1000 uM by spectrophotometric analysis relative to control.
For test [12], the target named is Beta-glucuronidase (Escherichia coli (strain K12)) (UniProt P05804). In words: Inhibition of Escherichia coli beta-glucuronidase assessed as reduction of p-nitrophenol release using p-nitrophenyl-glycoside as substrate at 1000 uM by spectrophotometric analysis relative to control.
Test [13] in a line: Inhibition of rice alpha-glucosidase assessed as reduction of p-nitrophenol release using p-nitrophenyl glycoside as substrate by spectrophotometric analysis. Also noted: species or system Oryza sativa.

Structures are written as SMILES.

Usually IC50 stands for the midpoint of a concentration-inhibition curve. What is called inhibition is the change of the read-out against control, counted positive when it falls.

Sequence of Alpha-galactosidase (Coffea arabica) (Q42656 16-378 limits assumed): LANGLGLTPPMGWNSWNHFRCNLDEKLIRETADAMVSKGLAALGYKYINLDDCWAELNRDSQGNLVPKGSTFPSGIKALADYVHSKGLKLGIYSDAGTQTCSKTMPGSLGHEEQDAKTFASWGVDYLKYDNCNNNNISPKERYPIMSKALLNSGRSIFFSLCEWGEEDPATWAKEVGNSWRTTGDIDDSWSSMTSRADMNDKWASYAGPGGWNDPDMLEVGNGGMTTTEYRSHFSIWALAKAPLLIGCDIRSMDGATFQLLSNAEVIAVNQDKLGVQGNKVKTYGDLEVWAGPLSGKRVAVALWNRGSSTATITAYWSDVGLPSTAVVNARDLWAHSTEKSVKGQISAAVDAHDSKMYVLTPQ
Sequence of Beta-glucuronidase (Escherichia coli (strain K12)) (P05804 whole entry, looked up): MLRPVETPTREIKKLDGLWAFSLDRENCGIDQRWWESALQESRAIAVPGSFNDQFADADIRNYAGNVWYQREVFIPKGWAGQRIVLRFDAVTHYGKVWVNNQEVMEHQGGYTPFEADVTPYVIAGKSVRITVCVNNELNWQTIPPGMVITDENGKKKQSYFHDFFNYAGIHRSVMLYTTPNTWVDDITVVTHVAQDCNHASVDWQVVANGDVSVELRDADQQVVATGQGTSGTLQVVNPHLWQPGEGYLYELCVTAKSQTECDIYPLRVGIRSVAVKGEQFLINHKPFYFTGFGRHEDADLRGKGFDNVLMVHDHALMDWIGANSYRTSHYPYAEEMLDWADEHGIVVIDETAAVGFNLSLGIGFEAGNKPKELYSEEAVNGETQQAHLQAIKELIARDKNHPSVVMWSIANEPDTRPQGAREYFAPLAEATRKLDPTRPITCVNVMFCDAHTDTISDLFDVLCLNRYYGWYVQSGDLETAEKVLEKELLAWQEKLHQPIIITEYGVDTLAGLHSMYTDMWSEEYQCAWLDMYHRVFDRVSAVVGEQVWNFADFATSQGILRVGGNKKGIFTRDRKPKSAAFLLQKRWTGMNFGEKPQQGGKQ
Sequence of Beta-glucuronidase (P05804 whole entry): as the sequence (P05804 whole entry, looked up) above

As to `CC(C)(C)c1ccc(CCCCCC[C@H](O)[C@H]2N[C@H](CO)[C@@H](O)[C@@H]2O)cc1`, the IC50 in test [1] amounted to 0.014 µM; in test [2], 0.05 µM; on Beta-glucuronidase, 23 µM; in [3], 63 µM; in [5], 3.2 µM; in test [8], 96 µM. Besides, the IC50 in test [9] is 0.36 µM. Besides, the inhibition in the test listed under Sus scrofa was determined as 0%; in the test listed under Bos taurus, 0%; in [4], 0%; in the test listed under Rattus norvegicus it was 14.1%; in test [6] it was 0.9%; in [7], 0%. Further, the inhibition with Oryza sativa is 48.6%; in the test on Penicillium decumbens, 6.2%; in test [10], 27.6%.

On to `CC(C)(C)c1ccc(CCCCCC[C@@H](O)[C@H]2N[C@H](CO)[C@@H](O)[C@@H]2O)cc1.Cl`, for which the half-inhibitory concentration (IC50) was determined as 0.002 µM in test [1]; 0.004 µM in test [2]; 2.9 µM on Beta-glucuronidase; 16 µM in test [3]; 57 µM on Alpha-glucosidase; 0.81 µM in [5]. Also, the results for the IC50 in test [8] and in test [9] were 14 µM and 0.064 µM, respectively. The inhibition in the test listed under Sus scrofa worked out at 2.3%; in the test listed under Bos taurus it was 4.3%; in test [4] it was 8.7%; in the test listed under Rattus norvegicus, 48.7%; in test [6], 5.5%; in the test on Oryza sativa, 36.6%. Further, in the test with Penicillium decumbens, the inhibition was determined as 4.8%.

As for `OC[C@@H]1N[C@@H]([C@@H](O)CCCCCCc2ccc(Cl)cc2)[C@H](O)[C@H]1O`, the IC50 in test [1] was 3.2 µM; in test [2] it was 8 µM; in test [11] it was 0.33 µM; in test [5], 5.9 µM; in test [13], 4.3 µM. Besides, the inhibition in the test with Helix pomatia is 0%; in the test with Aspergillus niger, 0%; in the test filed under Sus scrofa it was 0%; in the test listed under Bos taurus, 0%; in [4], 0%; in the test on Prunus dulcis, 37.1%. For the same molecule, the inhibition in [6] was found to be 3.6%; in test [7], 6.3%; in test [12] it was 6.8%; in the test with Penicillium decumbens, 0%; in test [10], 10%.

Regarding `OC[C@H]1N[C@H]([C@H](O)CCCCCCc2ccc(Cl)cc2)[C@@H](O)[C@@H]1O`, the IC50 in [1] came out at 0.003 µM; in [2], 0.005 µM; at Beta-glucuronidase, 41 µM; in [3] it was 32 µM; in [5], 2.1 µM; in [8] it was 37 µM. The IC50 in test [9] came out at 0.12 µM. Further, the inhibition worked out at 6% in the test filed under Sus scrofa; 0% in the test filed under Bos taurus; 4.5% in [4]; 18.2% in the test filed under Rattus norvegicus; 0% in test [6]; 0.6% in test [7]. For the same molecule, the inhibition in the test on Oryza sativa worked out at 8.9%; with Penicillium decumbens, 1.3%; in test [10], 42.3%.

Turning to `Cc1ccc(CCCCCC[C@@H](O)[C@H]2N[C@H](CO)[C@@H](O)[C@@H]2O)cc1`, the concentration for half-maximal inhibition (IC50) in [1] was 0.002 µM; in [2], 0.003 µM; at Beta-glucuronidase, 13 µM; in [3] it was 23 µM; in [5] it was 1.1 µM; in [8], 32 µM. Moreover, the IC50 in [9] was determined as 0.082 µM. The inhibition in the test filed under Sus scrofa worked out at 0%; in the test filed under Bos taurus it was 0%; in test [4] it was 5.9%; in the test filed under Rattus norvegicus, 10.5%; in test [6], 0.9%; in [7] it was 0%. Besides, the inhibition was 15% in the test on Oryza sativa, 7% in the test with Penicillium decumbens and 23.5% in [10].

As for `OC[C@@H]1N[C@@H]([C@H](O)CCCCCCc2ccc(F)cc2)[C@H](O)[C@H]1O`, the IC50 in [1] was 11 µM; in [2] it was 37 µM; in test [11] it was 35 µM; in test [5], 66 µM; in test [13] it was 92 µM. Besides, the inhibition stood at 2.9% in the test with Helix pomatia; 0% with Aspergillus niger; 0% in the test listed under Sus scrofa; 0% in the test listed under Bos taurus; 4.8% in test [4]; 27.4% with Prunus dulcis. The inhibition in test [6] came to 1.6%; in test [7], 1.5%; in [12] it was 14.1%; in the test on Penicillium decumbens it was 2.5%; in [10] it was 36.2%.

`CC(C)(C)c1ccc(CCCCCC[C@H](O)[C@@H]2N[C@@H](CO)[C@H](O)[C@H]2O)cc1`: the IC50 was 3.9 µM in test [1]; 7.7 µM in [2]; 0.65 µM in test [11]; 32 µM in test [5]; 0.86 µM in test [13]. In addition, the inhibition in the test on Helix pomatia amounted to 0%; in the test on Aspergillus niger it was 7.1%; in the test listed under Sus scrofa it was 0.9%; in the test filed under Bos taurus it was 0%; in [4], 0.8%; with Prunus dulcis, 44.7%. In addition, the inhibition in test [6] turned out to be 2.6%; in test [7], 0%; in [12], 15.5%; with Penicillium decumbens, 4.2%; in test [10] it was 9.6%.

The values above are taken from ChEMBL document CHEMBL5331098, “Nanomolar β-glucosidase and β-galactosidase inhibition by enantiomeric α-1-C-alkyl-1,4-dideoxy-1,4-imino-arabinitol derivatives” (Eur J Med Chem, 2023).
